# Measured values: patent publication US20250026748A1, “N-(5-SUBSTITUTED-[(1,3,4-THIADIAZOLYL) OR (THIAZOLYL)])(SUBSTITUTED)CARBOXAMIDE COMPOUNDS AND USE THEREOF FOR INHIBITING HUMAN POLYMERASE THETA” (Repare Therapeutics Inc., priority 2021, published 2025)
# Target: PolQ ATPase enzyme (1-894) (Homo sapiens (Human), UniProt O75417)
# Assay: Polθ ATPase enzymatic assay (0.5 nM enzyme concentration), ADP-Glo
# Format: biochemical
# Settings: average IC50; 0.5 nM PolQ ATPase enzyme (1-894)
# How it was run: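 Enzyme (0.5 nM) pre-incubated 15 min at rt with 10-point inhibitor series in 50 mM Tris pH 7.5, 10% glycerol, 5 mM DTT, 10 mM MgCl2, 0.1 mg/ml BSA; reaction started with 20 nM fork DNA and 100 μM ATP, run 180 min at rt. ADP-Glo luminescence; IC50 from 4-parameter variable-slope fit.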
# PolQ ATPase enzyme (1-894), sequence (O75417 1-894): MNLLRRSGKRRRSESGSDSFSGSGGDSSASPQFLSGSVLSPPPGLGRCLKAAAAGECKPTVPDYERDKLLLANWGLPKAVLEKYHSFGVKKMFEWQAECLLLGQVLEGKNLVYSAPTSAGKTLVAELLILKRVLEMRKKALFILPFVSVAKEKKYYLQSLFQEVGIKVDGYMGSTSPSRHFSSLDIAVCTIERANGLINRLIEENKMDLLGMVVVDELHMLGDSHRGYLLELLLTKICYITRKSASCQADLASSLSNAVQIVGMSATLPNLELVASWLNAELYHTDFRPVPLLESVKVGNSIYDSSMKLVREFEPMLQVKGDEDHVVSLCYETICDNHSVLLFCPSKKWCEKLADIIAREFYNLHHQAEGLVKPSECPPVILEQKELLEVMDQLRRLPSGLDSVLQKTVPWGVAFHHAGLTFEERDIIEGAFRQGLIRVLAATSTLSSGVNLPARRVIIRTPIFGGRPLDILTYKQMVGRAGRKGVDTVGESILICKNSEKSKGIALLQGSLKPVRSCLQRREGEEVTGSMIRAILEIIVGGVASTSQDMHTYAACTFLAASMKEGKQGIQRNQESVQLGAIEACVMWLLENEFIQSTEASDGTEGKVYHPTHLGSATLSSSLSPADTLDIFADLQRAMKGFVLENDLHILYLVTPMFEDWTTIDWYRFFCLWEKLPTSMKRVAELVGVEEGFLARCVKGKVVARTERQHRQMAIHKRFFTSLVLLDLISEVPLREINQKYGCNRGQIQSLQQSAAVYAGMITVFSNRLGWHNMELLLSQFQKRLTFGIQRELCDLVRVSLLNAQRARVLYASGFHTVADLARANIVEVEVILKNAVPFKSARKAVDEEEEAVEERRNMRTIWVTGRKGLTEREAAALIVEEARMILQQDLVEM
row,SMILES,IC50 [nM]
1,COc1cnc(C(F)F)cc1-c1cc(-c2ccn(C)n2)ncc1C(=O)Nc1nc(C)c(C#CC2CC2)s1 [Compound 157],115
2,COc1ccc(C(F)(F)F)cc1-c1cc(C2CCN(C)C2=O)ncc1C(=O)Nc1nnc(C#CC2CC2)s1 (centres unmarked) [Compound 297],0.69
3,"COc1ccc(C(F)(F)F)cc1-c1cc(CC(=O)N(C)C)ncc1C(=O)Nc1nnc(C#CC2CC2)s1 [Compound 33, N-(5-(cyclopropylethynyl)-1,3,4-thiadiazol-2-yl)-6-(2-(dimethylamino)-2-oxoethyl)-4-(2-methoxy-5-(trifluoromethyl)phenyl)nicotinamide]",< 0.25
4,"COc1cnc(Cl)cc1-c1cnccc1C(=O)Nc1nnc(C#Cc2cc(C)[nH]n2)s1 [Compound 28, 3-(2-chloro-5-methoxy-4-pyridyl)-N-[5-[2-(5-methyl-1H-pyrazol-3-yl)ethynyl]-1,3,4-thiadiazol-2-yl]pyridine-4-carboxamide]",0.36
5,COc1cnc(C(F)F)cc1-c1cc(-c2cnn(C3CCOCC3)c2)ncc1C(=O)Nc1nnc(C#CC2CC2)s1 [Compound 355],0.3
6,COc1ccc(C(F)(F)F)cc1-c1cn(C)c(=O)cc1C(=O)Nc1nnc(C#CC2COC2)s1 [Compound 343],8.4
7,COc1cnc(Cl)cc1-c1cn(CC(N)=O)c(=O)cc1C(=O)Nc1nnc(C#CC2CC2)s1 [Compound 105],0.47
8,COc1cnc(C(F)F)cc1-c1cc(CC(=O)N(C)C)ncc1C(=O)Nc1ncc(C#CC2CC2)s1 [Compound 200],< 0.25
9,COc1cnc(C(F)(F)F)cc1-c1cnccc1C(=O)Nc1nnc(C#CC2CC23CC3)s1 (centres unmarked) [Compound 69],0.28
10,COc1cnc(C(F)F)cc1-c1cc(C#CC2CCCOC2)ncc1C(=O)Nc1nnc(C#Cc2cc(C)[nH]n2)s1 (centres unmarked) [Compound 146],< 0.25
11,COc1cnc(Cl)cc1-c1cc(C#N)ncc1C(=O)Nc1nnc(C#CC2CC2)s1 [Compound 72],0.62
12,COc1cnc(C(F)(F)F)cc1-c1cn(C)c(=O)cc1C(=O)Nc1nnc(C#CC2CC2)s1 [Compound 59],1.89

# Continued, values first:
row,IC50 [nM],SMILES
1,6.6,"COc1cnc(C(F)F)cc1-c1cn2ncnc2cc1C(=O)Nc1nnc(C#CC2CC2)s1 [Compound 36, N-(5-(cyclopropylethynyl)-1,3,4-thiadiazol-2-yl)-6-(2-(difluoromethyl)-5-methoxypyridin-4-yl)-[1,2,4]triazolo[1,5-a]pyridine-7-carboxamide]"
2,1.6,COc1cnc(C(F)F)cc1-c1ccncc1C(=O)Nc1nnc(C#CC2CC2)s1 [Compound 316]
3,< 0.25,COc1cnc(C(F)F)cc1-c1cc(-n2cc(C)ccc2=O)ncc1C(=O)Nc1nnc(C#CC2CC2)s1 [Compound 440]
4,15,CNc1ccc(C(=O)Nc2nnc(C#CC3CC3)s2)c(-c2cc(C(F)F)ncc2OC)c1 [Compound 243]
5,4,COc1cnc(C(F)F)cc1-c1cc(N2CCN(C)C(=O)C2)ncc1C(=O)Nc1nnc(C#CC2CC2)s1 [Compound 128]
6,0.87,COc1cnc(C(F)F)cc1-c1cc(C#N)ncc1C(=O)Nc1nnc(C#CC2CC2)s1 [Compound 313]
7,0.27,COc1cnc(C(F)F)cc1-c1cc(-c2nnc(C)o2)ncc1C(=O)Nc1nnc(C#CC2CC2)s1 [Compound 354]
8,< 0.25,COc1cnc(C(F)F)cc1-c1cc(N2CC[C@H]3C[C@H]3C2=O)ncc1C(=O)Nc1nnc(C#CC2CC2)s1 [Compound 383]
9,< 0.25,COc1cnc(C(F)F)cc1-c1cc(N2CCCC(C)(C)C2=O)ncc1C(=O)Nc1nnc(C#CC2CC2)s1 [Compound 442]
10,< 0.25,"COc1cnc(C(F)F)cc1-c1cc(-c2ccn(CS(C)(=O)=O)n2)ccc1C(=O)Nc1nnc(C#CC2CC2)s1 [Compound 124, N-(5-(cyclopropylethynyl)-1,3,4-thiadiazol-2-yl)-2-(2-(difluoromethyl)-5-methoxypyridin-4-yl)-4-(1-((methylsulfonyl)methyl)-1H-pyrazol-3-yl)benzamide]"
11,< 0.25,COc1cnc(C(F)F)cc1-c1cc(N2CC[C@@H]3C[C@@H]3C2=O)ncc1C(=O)Nc1nnc(C#CC2CC2)s1 [Compound 384]
